In US8563738B2, “Ligands for copper-catalyzed azide-alkyne cycloaddition reactions” (The Scripps Research Institute, priority 2007, dated 2013):

Legend:
[1] = Ligand screening by reaction calorimetry (peak reaction power); settings: high reactant concentrations, 1% Cu, 4:1 DMSO:aqueous, 65° C.
Text: Reaction calorimetry was used to evaluate the relative merits of various ligands under practical conditions of organic synthesis, e.g., involving high concentrations of azide and alkyne reagents and low loadings of catalyst. After correction for instrumental heat transfer parameters, thermograms provide a direct real-time measure of reaction rate (power output); integration gives the overall time-vs.-completion curve. […] All such measurements were made in the same 4:1 DMSO:aqueous solvent as before, but at 65° C. rather than room temperature, in order to keep the product triazole in solution at the higher concentrations used.
Calorimetry was performed in an Omnical INSIGHT® 10-channel reaction calorimeter using 40 mL glass vials. In a typical run all the reaction components but one were introduced into the vials inside an inert atmosphere glovebox, and vials were sealed with septum caps. The last reaction component to be added was placed in a Hamilton gastight syringe. The vials and syringes were then allowed to equilibrate inside the preheated instrument (65° C.) for 30 minutes. The reaction was started in all vials by depressing all of the syringes simultaneously. Two vials out of ten were charged only with solvent to obtain readings allowing for compensation for the heat of mixing. The thermograms registered in these two channels upon addition of the last component were used to construct the baseline for the other 8 channels.
Since heat is not transferred to the instrument sensor instantaneously, the thermogram registered by the instrument is dependent on the characteristics of the instrument and reaction vessel. Correction for these extraneous factors must be applied to the recorded thermograms to obtain instrument-independent data (Rosner, T.; et al. J. Am. Chem. Soc. 2001, 123, 1848-1855; Liu, J.-S.; et al. Thermochimica Acta 1994, 236, 113-122). The appropriate dynamic correction function is built into the instrument operating software. Use of vendor supplied software produces the same result as manual correction.
By the same token, catalysts such as Cu.1 that give observable, but not very strong, calorimetry signals cannot be fully analyzed by converting thermograms to completion curves, because a significant amount of the total energy output is lost below the detection threshold of the instrument. TBTA (1) falls into this category, classified as “moderate” ligands. […] However, peak power values (i.e., maximum reaction rate) provided a reproducible relative measure of relative catalytic efficiency.
Ligands were screened under the following conditions: 250 mM benzyl azide, 454 mM phenylacetylene, 2 mM CuSO4, 4 mM ligand, 25 mM sodium ascorbate. Phenylacetylene was the last component added. Initial screening was performed with at least two independent trials for each ligand. Candidates showing promising activity were then examined with at least three independent trials to obtain reliable estimations of experimental error.

[2] = Second-order rate constants of CuAAC reaction by LC-MS of quenched aliquots; settings: for change in rate with pH: pH of the aqueous component raised from 7 to 8; for relative catalytic rate (second-order specific activity): ligand:Cu 2:1, 0.1 mM Cu, 1-2 mM substrates, 4:1 DMSO:aqueous buffer, sodium ascorbate
Description: The relative effectiveness of Cu-ligand complexes was evaluated on the reaction between phenylacetylene and benzyl azide in 4:1 DMSO:aqueous buffer containing sodium ascorbate as reducing agent, which has served as the standard reaction in previous mechanistic studies (Rodionov, V. O.; et al. Angew. Chem. Int. Ed. 2005, 44, 2210-2215). Ligand:Cu ratios are used herein to describe the amounts of each component added, and designate mixtures of ligands and copper ions according to those ratios for convenience. However, it must be emphasized that the active catalysts are not necessarily composed of those same ratios of ligand and metal as are placed in the reaction vessel. The equilibria that govern the composition of these catalysts are discussed below, and their study will be the subject of a separate publication.
Absolute rates were determined under relatively dilute conditions (1-2 mM in substrates), which were required to slow the reactions enough so that aliquots could be reliably taken over a substantial fraction of the completion curve. Each aliquot was immediately quenched and the amount of product formed monitored by quantitative LC-MS against an internal standard. In this way, the clean conversion to triazole was verified in each case, information that is not available by following the disappearance of azide or alkyne by infrared spectroscopy. Plots of product concentrations vs. time fitted very well to second-order kinetics over at least 70% of the reaction (FIG. 2A). […] For this reason, comparisons were made between second-order specific activities (rate constants determined at a standard Cu concentration of 0.1 mM) for catalysts composed of 2:1 mixtures of ligands and Cu(I), in the presence of excess ascorbate relative to Cu.
Reagent stock solutions were freshly prepared before use. In a typical experiment, reactions were set up in the first column of a deep-well polypropylene microtiter plate (2.5 mL well volume). 100 μL of 30% H2O2 and 100 μL of ethanol were dispensed into all other wells.
The reactions were started by the addition of the final component (typically CuSO4 solution). Aliquots of 100 μL were taken at 1-5 minute intervals from the reaction wells with a multichannel pipetman, and transferred to the subsequent columns of wells for quenching. After the desired number of aliquots have been quenched in this fashion, the contents of the plate were transferred to a standard polystyrene 96-well plate for analysis.
LC-MS analysis was performed on an Agilent 1100 (G1946D) instrument, equipped with a 35 mm Agilent ZORBAX® 3.5μ or 1.8μ SB-C18 column. The elution solvent for the detection of 1-benzyl-4-phenyl-1,2,3-triazole was 55:45 H2O:CH3CN, with 0.5% TFA. Analysis of the other triazole products required a solvent gradient (typically from 50:50 to 25:75 H2O:CH3CN, 0.5% TFA over the course of 4-5 minutes). Detection was performed in single ion mode (SIM), which typically allowed for quantitative triazole detection down to 0.1 μM. 1-benzyl-4-phenyl-1,2,3-triazole-d7 was used as internal reference for all experiments.
Equations (2) and (3) were used to find the value of k (kobs) that gives the best fit curve to the experimental data of [P] vs. time.
FIG. 2 summarizes the rate data. Note that the rate constants obtained here are really specific activities at 0.10 mM Cu catalyst concentration. Very similar results were obtained at pH 8 in the presence of 180 mM vs. 10 mM HEPES buffer.
FIG. 2B. Conditions: 1 mM BnN3, 2 mM PhCCH, 0.1 mM CuSO4, 0.2 mM ligand, 4:1 DMSO:HEPES (180 mM), 25 mM NaAsc; pH verified with meter after ascorbate addition. The dots mark observed data points; the solid line is the best second-order fit; an initial “burst” of catalytic activity was not counted in the reported rate constants. Experimental error in rate constants upon repeat measurement is <15% (usually ca. 10%), except where noted.
FIG. 2C. […]

Solubility of ligands = settings: for solubility in common organic solvents: including DMSO
[3] = Second-order rate constants of CuAAC reaction by LC-MS of quenched aliquots; settings: 4:1 DMSO:buffer, Tris buffer over a standard range of concentrations

Row | SMILES | relative catalytic activity by calorimetry [1] | relative catalytic rate (second-order specific activity) [2] | also measured
1 | Cn1ccn(-c2cccc(-n3ccn(C)[c]3=[Cu][Cl])n2)[c]1=[Cu][Cl] [Ligand S3, reference compound] | in the range of TBTA (1) |  | 
2 | c1ccc2sc(CN(Cc3nc4ccccc4s3)Cc3nc4ccccc4s3)nc2c1 [(Bth)3, Tris-(2-benzothiazolylmethyl)amine] | largely inactive |  | change in rate with pH [2]: more sensitive; solubility in common organic solvents (Solubility of ligands): unusually low solubility
3 | O=C([O-])CCCn1c(CN(Cc2nc3ccccc3n2CCCC(=O)[O-])Cc2nc3ccccc3n2CCCC(=O)[O-])nc2ccccc21.[K+].[K+].[K+] [(BimC3A)3] | best in the class | noticeably better catalyst performance | 
4 | O=S(=O)(O)c1ccc2[nH]c(CN(Cc3nc4cc(S(=O)(=O)O)ccc4[nH]3)Cc3nc4cc(S(=O)(=O)O)ccc4[nH]3)nc2c1 [(BimH/S)3, reference compound] |  | strong rate acceleration through a wide pH range | 
5 | Cc1cc(C)c(-n2ccn(-c3c(C)cc(C)cc3C)[c]2=[Cu][Cl])c(C)c1 [Ligand S1, reference compound] | no detectable exothermic heat flow |  | 
6 | c1ccc2[nH]c(CN(Cc3nc4ccccc4[nH]3)Cc3nc4ccccc4s3)nc2c1 [(Bth)(BimH)2, N,N-bis((1H-benzimidazol-2-yl)methyl)-1-(benzothiazol-2-yl)methanamine] | largely inactive |  | 
7 | O=C([O-])CCCCn1c(CN(Cc2nc3ccccc3n2CCCCC(=O)[O-])Cc2nc3ccccc3n2CCCCC(=O)[O-])nc2ccccc21.[K+].[K+].[K+] [(BimC4A)3, Potassium 5,5′,5″-(2,2′,2″-nitrilotris(methylene)tris(1H-benzimidazole-2,1-diyl))tripentanoate] | best in the class | noticeably better catalyst performance | relative catalytic rate (second-order specific activity) ([2]; listed as (BimC4A)): strong rate acceleration through a wide pH range
8 | Cn1c(CN(Cc2nc3ccccc3n2C)Cc2nc3ccccc3n2C)nc2ccccc21 [(BimC1H)3] |  | performing as well as the parent structure (BimH)3 | solubility in common organic solvents (Solubility of ligands): unusually low solubility
9 | CC(C)(C)OC(=O)Cn1c(CN(Cc2nc3ccccc3n2CC(=O)OC(C)(C)C)Cc2nc3ccccc3n2CC(=O)OC(C)(C)C)nc2ccccc21 [(BimC1E′)3] |  | performing as well as the parent structure (BimH)3 | 
10 | c1ccc2[nH]c(CNCc3nc4ccccc4[nH]3)nc2c1 [H(BimH)2, Bis-(2-benzimidazolylmethyl)amine, reference compound] |  | slower than those observed for the “ligand-free” case | 
11 | c1ccc2[nH]c(CN(Cc3nc4ccccc4[nH]3)Cc3nc4ccccc4[nH]3)nc2c1 [(BimH)3, Tris-(2-benzimidazolylmethyl)amine, reference compound] |  |  | change in rate with pH [2]: more sensitive; effect of Tris buffer on rate [3]: slowed significantly
12 | CCOC(=O)CCCCn1c(CN(Cc2nc3ccccc3n2CCCCC(=O)OCC)Cc2nc3ccccc3n2CCCCC(=O)OCC)nc2ccccc21 [(BimC4E)3, Triethyl 5,5′,5″-(2,2′,2″-nitrilotris(methylene)tris(1H-benzimidazole-2,1-diyl))tripentanoate] |  | just as active as its hydrolyzed (carboxylate) analog | 
13 | O=C([O-])CCCCCn1c(CN(Cc2nc3ccccc3n2CCCCCC(=O)[O-])Cc2nc3ccccc3n2CCCCCC(=O)[O-])nc2ccccc21.[K+].[K+].[K+] [(BimC5A)3] | best in the class | noticeably better catalyst performance | 
14 | O=C([O-])Cn1c(CN(Cc2nc3ccccc3n2CC(=O)[O-])Cc2nc3ccccc3n2CC(=O)[O-])nc2ccccc21.[K+].[K+].[K+] [(BimC1A)3] |  | one of the least effective catalysts in the series | water solubility (Solubility of ligands; water): water-soluble
15 | c1ccc(CN(Cc2ccccn2)Cc2ccccn2)nc1 [(Py)3, tris(pyridylmethyl)amine, reference compound] | one of the best ligands in calorimetry screening | slower than those observed for the “ligand-free” case | 
16 | CCOC(=O)Cn1c(CN(Cc2nc3ccccc3n2CC(=O)OCC)Cc2nc3ccccc3n2CC(=O)OCC)nc2ccccc21 [(BimC1E)3, Triethyl 2,2′,2″-(2,2′,2″-nitrilotris(methylene)tris(1H-benzimidazole-2,1-diyl)) triethanoate] |  | performing as well as the parent structure (BimH)3 | 
17 | c1ccc2[nH]c(CN(Cc3nc4ccccc4s3)Cc3nc4ccccc4s3)nc2c1 [(Bth)2(BimH), N-((1H-benzimidazol-2-yl)methyl)-1-(benzothiazol-2-yl)-N-(benzothiazol-2-ylmethyl)methanamine] | largely inactive | best ligand in the series | effect of HEPES buffer on rate ([2]; 180 mM HEPES): faster turnover; change in rate with pH [2]: very little change in rate
